Assay results published in PubChem BioAssay (NCI).
Several values for one entry are separate records, joined by “and”; a condition that tells them apart may be missing. Identical values can stand only once.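 How tested: cells in 96-well plates exposed to compound for 48 hours at five concentrations. GI50 is the concentration that inhibits growth by half. TGI marks complete inhibition of growth.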

Key:
Experiment in all cases: DTP human tumour cell line panel, 48 h
A549 NSCLC = system: A549 NSCLC
COLO 205 colon = system: COLO 205 colon
HCT-116 colon = system: HCT-116 colon
HL-60(TB) leukemia = system: HL-60(TB) leukemia
K-562 leukemia = system: K-562 leukemia
NCI-H226 lung = system: NCI-H226 lung
SK-MEL-2 melanoma = system: SK-MEL-2 melanoma
UACC-257 melanoma = system: UACC-257 melanoma
RPMI-8226 leukemia = system: RPMI-8226 leukemia
UACC-62 melanoma = system: UACC-62 melanoma

Compound	GI50 (A549 NSCLC) [µM]	TGI (A549 NSCLC) [µM]	TGI (COLO 205 colon) [µM]	GI50 (HCT-116 colon) [µM]	TGI (HCT-116 colon) [µM]	GI50 (HL-60(TB) leukemia) [µM]	TGI (HL-60(TB) leukemia)	GI50 (K-562 leukemia) [µM]	TGI (K-562 leukemia) [µM]	GI50 (NCI-H226 lung) [µM]	TGI (NCI-H226 lung) [µM]	GI50 (SK-MEL-2 melanoma) [µM]	TGI (SK-MEL-2 melanoma)	GI50 (UACC-257 melanoma) [µM]	TGI (UACC-257 melanoma) [µM]	TGI (RPMI-8226 leukemia) [µM]	TGI (UACC-62 melanoma) [µM]	GI50 (COLO 205 colon) [µM]	GI50 (RPMI-8226 leukemia) [µM]	GI50 (UACC-62 melanoma) [µM]
COc1cc(NCc2ccc3nc(N)nc(N)c3c2C)cc(OC)c1OC (tested in a mixture with another compound)	0.000138	21.9	45.1	0.000185	33	0.000746	29.4 µM and 26.3 µM	0.000159	46.3	0.0892	52.8	0.339	42.3 µM and 55.1 µM	0.00993	48.7					
N#C/C1=C(\N)CCSSSC1		> 100	> 100		> 100				> 100		65.8		90.5 µM		> 100	> 100				
C1=CC(N(c2ccccc2)C2C=CCCC2)CCC1 (stereo not given)		> 100	> 100		> 100		> 100 µM		> 100							> 100	> 100			
CCCC(=O)Nc1cc2c3c(c1)CCCN3CCC2		> 10	> 10		> 10		> 10 µM		> 10						> 10	> 10	> 10			
CCC[CH2][Sn]([Cl])([CH2]CCC)[CH2]CCC	0.132	0.32	0.278	0.0569	0.188	0.121	0.351 µM	0.0411	0.204			0.112	0.24 µM	0.108	0.248	0.168	0.373	0.134	0.0171	0.135
CCCc1nc(NC#N)nc(C(=O)Nc2ccccc2)c1CC		> 100			> 100		> 100 µM		> 100		> 100		> 100 µM		> 100	> 100	> 100			
COc1ccc2[nH]cc(C3(c4c[nH]c5ccc(OC)cc45)C(=O)Nc4ccc(F)cc43)c2c1			3.05	1.76	3.16			2.24	5.78	2.58	12	2.34	5.02 µM	2.2	6.23	> 100	6.1	1.69	4.41	1.98
CC12CP(=O)(c3ccccc3)CC1C2(Cl)Cl (stereo not given)		> 100	> 100		> 100				> 100							> 100	> 100			
CO/N=C(\COc1ccc2c(c1)oc(=O)c1cc(OC)ccc12)c1ccc(OC)cc1	> 100	> 100	> 100	> 100	> 100			> 100	> 100	> 100	> 100	> 100	> 100 µM	> 100	> 100	> 100	> 100	> 100	> 100	> 100
Cc1nn(-c2ccc(Cl)cc2)c2nc3c(nc12)C(=O)c1ccccc1-3	> 100	> 100	> 100			> 100	> 100 µM	> 100	> 100	25.6	> 100	> 100	> 100 µM	> 100	> 100	> 100	> 100	> 100	> 100	> 100
COc1ccc(C(=O)/C=C/c2cc(-c3cc(OC)c(OC)c(OC)c3)n[nH]2)cc1OC	1.86	4.59	3.21			1.44	4.18 µM	1.91	7.12			1.85	3.51 µM	1.49	2.83	1.11	3.22	1.74	0.241	1.74
CCOC(=O)C(=[N+]=[N-])[Si](C)(C)C		> 100	> 100		> 100								> 100 µM		> 100		> 100			
CCOc1ccc(NC(=O)CC#N)cc1		> 100	> 100		> 100		> 100 µM		> 100		> 100		> 100 µM		> 100		> 100			
O=C(c1ccccc1Br)C(F)(F)F		> 100	> 100		> 100		> 100 µM		> 100		> 100					> 100	> 100			
CC1CN(C(=O)CN2CCC(CCCCN(C)C)CC2)c2ccccc2NC1=O (stereo not given)		> 100	> 100		> 100		> 100 µM		> 100		> 100				> 100	> 100	> 100			
Clc1ccc2[nH]cc(-c3nnnn3-c3ccccc3)c2c1	20.8	> 100	> 57.8	18.3	57.5			8.58	> 67.3	74	> 100	> 64.9	> 100 µM	24.9	71	43.3	> 100	23.1	14.5	11.2
COC(=O)C(Cc1nc2ccc(Cl)cc2[nH]c1=O)/C(=N\N)C(=O)Nc1cc(C)c(Cl)cc1S(=O)(=O)O (stereo not given)		> 100	> 100		> 100				> 100		> 100		> 100 µM		> 100	> 100	> 100			
CC(=O)c1sc(Nc2nnc(-c3ccc(-c4nnc(Nc5nc(C)c(C(C)=O)s5)o4)cc3)o2)nc1C		> 10	> 100		> 100		> 100 µM		> 100		> 100				> 100	> 100	> 100			

Compound	GI50 (A549 NSCLC) [µM]	TGI (A549 NSCLC) [µM]	TGI (COLO 205 colon) [µM]	GI50 (HCT-116 colon) [µM]	TGI (HCT-116 colon) [µM]	GI50 (HL-60(TB) leukemia) [µM]	TGI (HL-60(TB) leukemia)	GI50 (K-562 leukemia) [µM]	TGI (K-562 leukemia) [µM]	GI50 (NCI-H226 lung) [µM]	TGI (NCI-H226 lung) [µM]	GI50 (SK-MEL-2 melanoma) [µM]	TGI (SK-MEL-2 melanoma)	GI50 (UACC-257 melanoma) [µM]	TGI (UACC-257 melanoma) [µM]	TGI (RPMI-8226 leukemia) [µM]	TGI (UACC-62 melanoma) [µM]	GI50 (COLO 205 colon) [µM]	GI50 (RPMI-8226 leukemia) [µM]	GI50 (UACC-62 melanoma) [µM]
Cc1cc(Cl)ccc1NC(=O)C(=O)Cc1nc2ccccc2o1		> 100	> 100		> 100		> 100 µM		> 100				> 100 µM		> 100	> 100	> 100			
Cn1cc(-c2csc(-c3c[nH]c4ccc(F)cc34)n2)c2cnccc21	1.83	3.42		1.22	2.56	2.19	4.32 µM			1.88	4.03	1.87	3.48 µM	1.96	3.55		3.39			1.83
O=C1/C(=C/c2ccc3c(c2)OCO3)SC2C=Nc3ccccc3N12 (stereo not given)		> 100	> 100		> 100						> 100		> 100 µM		> 100		> 100			
COc1ccc2c(c1)C(=O)c1c-2c(N2CCN(C(=O)CNCCNCCO)CC2)nc2ccccc12	7.1	24.3	4.19	1.59	3.07			2.85	11.9	10.9	29.5	2.2	4 µM	2.83	6.4	4.68	8.64	2.17	2.04	2.82
CC(=O)Oc1c2c(c(O)c3ccccc13)C(n1cnc3c(ncn3C3OC(CO)C4OC(C)(C)OC43)c1=N)CCC2 (stereo not given)		35.4	37.6				22.3 µM		30		52.8		29.4 µM		21.8	18.7	29			
CCOC(=O)Nc1ccc(-c2nc(-c3cccc(OCCN4CCOCC4)c3)c(-c3ccnc(Br)c3)[nH]2)cc1	3.47	> 100		2.98	> 100	2.15	5.39 µM	2.53	> 100	3.18	> 100	2.41	6.07 µM	2.21	5.24	3.78	7.14		1.07	2.26
CN(C)CC[PH+](c1ccccc1)c1ccccc1.CN(C)CC[PH+](c1ccccc1)c1ccccc1.[Cl-].[Pd+2]	> 100	> 100	> 100	> 100	> 100	> 100	> 100 µM	27.8	> 100	> 100	> 100			> 100	> 100	> 100	> 100	80.2	99.8	> 100
COc1cccc(C2=NC(C(C)C)CO2)c1 (stereo not given)		> 100	> 100				> 100 µM		> 100		> 100		> 100 µM		> 100	> 100	> 100			
COC1(OC)C(N(C)C)=C(Cl)C(=O)/C1=C/C=O		> 100	> 100		> 100		> 100 µM		> 100		> 100				> 100	> 100	> 100			
Cc1[nH]c2ccccc2c1C(=O)/C=C/c1ccccc1O		> 100	> 100		> 100		> 100 µM		> 100				> 100 µM		> 100		> 100			
COc1cc2c(cc1OCCCNC(=O)c1cccc3c(=O)c4ccccc4[nH]c13)N=C[C@@H]1CCCN1C2=O	0.0202	> 100	0.0437	< 0.01	> 100		> 77 µM		> 100	< 0.01	< 0.01	2.37	4.82 µM	< 0.01	0.759		< 0.01	< 0.01		< 0.01
Nc1c(C(=O)Nc2ccncc2)sc2nc3c(cc12)CCCCCCCC3	1.01	2	2.18			0.948	2.19 µM			0.919	2.03	0.975	1.79 µM	0.948	1.74	2.71	1.67	0.997	1.23	0.885
[N-]=[N+]=N[C@H]1C[C@@H](CO)O[C@H]1n1cnc2c(N)ncnc21		> 100	> 100		> 100		> 100 µM				> 100		> 100 µM		> 100					
C#C[C@]1(O)CCC2C3CCc4cc(O)ccc4C3CC[C@@]21C (stereo not given in full)	5.81	> 100	14	4.68	20	3.45	24.2 µM			10.3	30.8	5.81	26.8 µM	10.4	41.4		22.8	3.86		4.12
C=C(C)[C@@H]1CC[C@]2(C)[C@H](CC=C3[C@@H]4CC(C)(C)CC[C@]4(C(N)=O)CC[C@]32C)[C@@]1(C)CCC#N	4.1	> 100	7.36					2.54	> 100	2.94	9.41	5.28	> 100 µM	4.09	> 100	5.54	9.15	2.6	1.94	2.59
O=C(CC1(O)C(=O)N(Cc2ccccc2)c2ccc(F)cc21)c1ccc(C(=O)NCC2CCC3(CC2)OOC2(CCCCC2)OO3)cc1 (stereo not given)	0.207	0.441	2.02	1.36	3.29	0.349	0.999 µM			1.1	4.19	2	4.13 µM	4.78	31.7	1.92	5.61	0.728	0.365	2.18
O=C1C=CC(=O)c2cc3cc(CBr)ccc3cc21	9.07		28.7	0.606	1.89		0.2 µM	0.339	6.03	27.4	71.2	33.3	> 83.5 µM	56.9	> 100		15.6	4.19		5.61
COc1cc2c(c(OC)c1OC)-c1ccc(SC)c(=O)cc1C(NC=O)CC2 (stereo not given)		> 83.4	< 0.01				0.0492 µM		> 77.2		0.754		> 94.7 µM		> 84.8	47.1	> 100			
